Test results as given in patent US8426412B2, “2-alkynyl-6-pyridin-2-yl-pyridazinones, 2-alkynyl-6-pyridin-2-yl-dihydropyridazinones, 2-alkynyl-6-pyrimidin-2-yl-pyridazinones and 2-alkynyl-6-pyrimidin-2-yl-dihydropyridazinones and their use as fungicides” (Dow AgroSciences, LLC., priority 2008, dated 2013).
pIC50: −log10 of the molar value. In brackets after ≈: the same amount, converted by molar mass. Like-named read-outs stand apart in the source and are kept apart here.

What was measured:
[1] = target: T1, microsomal Δ-9 fatty acid desaturase (Saccharomyces cerevisiae, UniProt P21147); experiment: Inhibition of Δ-9 fatty acid desaturase (desaturation of 14C-palmitoyl-CoA to 14C-palmitoleic acid); settings: I50, concentration inhibiting production of palmitoleic acid by 50%; yeast microsomes, 30° C., 5 min
T1 sequence (P21147 1-510): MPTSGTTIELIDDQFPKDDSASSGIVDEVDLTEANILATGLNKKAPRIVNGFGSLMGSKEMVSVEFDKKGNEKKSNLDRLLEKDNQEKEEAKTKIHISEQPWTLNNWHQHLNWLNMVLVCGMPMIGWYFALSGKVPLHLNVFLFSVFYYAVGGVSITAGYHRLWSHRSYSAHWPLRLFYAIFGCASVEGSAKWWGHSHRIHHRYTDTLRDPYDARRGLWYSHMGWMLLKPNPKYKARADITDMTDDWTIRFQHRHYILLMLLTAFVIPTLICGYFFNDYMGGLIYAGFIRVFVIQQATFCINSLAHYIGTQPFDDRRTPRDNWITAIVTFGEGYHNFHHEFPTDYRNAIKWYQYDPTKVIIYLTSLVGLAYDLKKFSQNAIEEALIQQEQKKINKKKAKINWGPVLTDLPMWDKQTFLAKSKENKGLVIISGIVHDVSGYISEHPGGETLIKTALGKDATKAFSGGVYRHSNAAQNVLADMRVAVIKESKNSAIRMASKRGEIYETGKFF

[2] = system: Colletotrichum lagenarium (COLLLA); experiment: Activity towards plant pathogenic fungi, growth inhibition in microtiter plates; format: cell-based; settings: Colletotrichum orbiculare, 72 h, read-out: EC50 COLLLA
[3] = system: Pyricularia oryzae (PYRIOR); experiment: microbe, parasite or virus in culture; format: cell-based; settings: 72 h, read-out: EC50 PYRIOR
Candida albicans = experiment: microbe, parasite or virus in culture; format: cell-based
[4] = 50% inhibition of growth, 25° C., NepheloStar plate reader

Row | Structure (SMILES) | pIC50 [1] | EC50 [2, 4] | EC50 [3] | also measured
1 | CCCCCCCC#CCn1nc(-c2ccc(Cl)cn2)ccc1=O | 7.11 |  |  | 
2 | CCC#CCn1nc(-c2ccc(Br)cn2)ccc1=O | > 6.91 |  |  | 
3 | CCCCOCC#CCn1nc(-c2ccc(Cl)cn2)ccc1=O | 7.57 |  |  | 
4 | CCCCOCCC#CCn1nc(-c2ccc(Cl)cn2)ccc1=O | 7.28 |  |  | 
5 | CCCOCCCC#CCn1nc(-c2ccc(Cl)cn2)ccc1=O | 7.54 |  |  | 
6 | CCCOCCOCC#CCn1nc(-c2ccc(Cl)cn2)ccc1=O | 6.97 |  |  | 
7 | C=CC#CCn1nc(-c2ccc(Cl)cn2)ccc1=O | 7.23 |  |  | 
8 | CCC#CCn1nc(-c2ncc(Br)cn2)ccc1=O | 5.42 |  |  | 
9 | CCCCCCCC#CCn1nc(-c2ncc(Br)cn2)ccc1=O | 7.06 |  |  | 
10 | CCCCCCOCC#CCn1nc(-c2ncc(Br)cn2)ccc1=O | 7.40 |  |  | 
11 | CCC#CCn1nc(-c2ccc(C(F)(F)F)cn2)ccc1=O |  | 0.758 µg/mL (≈ 2.47 µM) | 0.674 µg/mL (≈ 2.19 µM) | 
12 | CCC#CCN1N=C(c2cc(Cl)ccn2)CCC1=O |  | 5.75 µg/mL (≈ 20.9 µM) | 5.52 µg/mL (≈ 20 µM) | 
13 | CCC#CCN1N=C(c2ccc(Cl)cn2)CCC1=O |  | 0.194 µg/mL (≈ 0.704 µM) | 0.021 µg/mL (≈ 0.0762 µM) | 
14 | CCC#CCN1N=C(c2ccc(Cl)c(Cl)n2)CCC1=O |  | 0.036 µg/mL (≈ 0.116 µM) | 0.031 µg/mL (≈ 0.0999 µM) | 
15 | CCC#CCn1nc(-c2ccc(F)c(F)n2)ccc1=O |  | 0.181 µg/mL (≈ 0.658 µM) | 0.163 µg/mL (≈ 0.592 µM) | 
16 | CCC#CCn1nc(-c2ccc(Cl)cn2)ccc1=O [drawing 70] | 6.92 |  |  | 
17 | CCCCCOCC#CCn1nc(-c2ccc(Cl)cn2)ccc1=O [drawing 72] | 7.64 |  |  | 
18 | CCCCCCCOCC#CCn1nc(-c2ccc(Cl)cn2)ccc1=O [drawing 76] | 7.34 |  |  | 
19 | CCCCOCCOCC#CCn1nc(-c2ccc(Cl)cn2)ccc1=O [drawing 77] | 6.76 |  |  | 
20 | CCC(C)CCOCC#CCn1nc(-c2ccc(Cl)cn2)ccc1=O (stereo not shown) [drawing 79] | 6.37 |  |  | 
21 | CCCCCCCOCC#CCn1nc(-c2ccc(Cl)cn2)ccc1=O [drawing 80] | 7.14 |  |  | 
22 | O=c1ccc(-c2ccc(Cl)cn2)nn1CC#CC1CC1 [drawing 82] | 6.33 |  |  | 
23 | CCC#CCN1N=C(c2cccc(Cl)n2)CCC1=O [drawing 83] | < 3.84 |  |  | 
24 | CCC#CCn1nc(-c2cccc(Cl)n2)ccc1=O [drawing 84] | 4.21 |  |  | 
25 | CCC#CCn1nc(-c2ccc(Cl)c(Cl)n2)ccc1=O [drawing 85] | 6.58 |  |  | 

Row | Structure (SMILES) | pIC50 [1] | EC50 [2, 4] | EC50 [3] | also measured
26 | CCC#CCN1N=C(c2ncccc2Cl)CCC1=O [drawing 86] | < 3.84 |  |  | 
27 | CCC#CCn1nc(-c2ncccc2Cl)ccc1=O [drawing 87] | < 3.84 |  |  | 
28 | CCC#CCN1N=C(c2ncc(Cl)cc2Cl)CCC1=O [drawing 88] | < 3.89 |  |  | 
29 | CCC#CCn1nc(-c2ncc(Cl)cc2Cl)ccc1=O [drawing 89] | < 3.89 |  |  | 
30 | CC(C)(C)C#C/C=C/Cn1nc(-c2ccc(Cl)cn2)ccc1=O [drawing 90] | < 3.91 |  |  | 
31 | CCC#CCN1N=C(c2nc(Cl)c(Cl)cc2Cl)CCC1=O [drawing 91] | < 3.94 |  |  | 
32 | CCC#CCn1nc(-c2ccc(Cl)c(F)n2)ccc1=O [drawing 92] | 7.00 |  |  | 
33 | CCC#CCn1nc(-c2ccc(Cl)cn2)ccc1=O [drawing 96] |  | 0.113 µg/mL (≈ 0.413 µM) | 0.0474 µg/mL (≈ 0.173 µM) | 
34 | CCCCCOCC#CCn1nc(-c2ccc(Cl)cn2)ccc1=O [drawing 98] |  | 0.007 µg/mL (≈ 0.0202 µM) | 0.192 µg/mL (≈ 0.555 µM) | 
35 | CCCCOCCOCC#CCn1nc(-c2ccc(Cl)cn2)ccc1=O [drawing 99] |  | 0.033 µg/mL (≈ 0.0878 µM) | 0.05 µg/mL (≈ 0.133 µM) | 
36 | CCC(C)CCOCC#CCn1nc(-c2ccc(Cl)cn2)ccc1=O (stereo not shown) [drawing 100] |  | 1.16 µg/mL (≈ 3.22 µM) | 0.284 µg/mL (≈ 0.789 µM) | 
37 | O=c1ccc(-c2ccc(Cl)cn2)nn1CC#CC1CC1 [drawing 101] |  | 0.092 µg/mL (≈ 0.322 µM) | 0.062 µg/mL (≈ 0.217 µM) | 
38 | CCC#CCN1N=C(c2cccc(Cl)n2)CCC1=O [drawing 103] |  | 3.4 µg/mL (≈ 12.3 µM) | 1.01 µg/mL (≈ 3.66 µM) | 
39 | CCC#CCn1nc(-c2cccc(Cl)n2)ccc1=O [drawing 105] |  | 1 µg/mL (≈ 3.65 µM) | 1.4 µg/mL (≈ 5.11 µM) | 
40 | CCC#CCn1nc(-c2ccc(Cl)c(Cl)n2)ccc1=O [drawing 106] |  | 0.0537 µg/mL (≈ 0.174 µM) | 0.0371 µg/mL (≈ 0.12 µM) | 
41 | CCC#CCN1N=C(c2ncccc2Cl)CCC1=O [drawing 108] |  | > 40 µg/mL | 33 µg/mL (≈ 120 µM) | 
42 | CCC#CCn1nc(-c2ncccc2Cl)ccc1=O [drawing 109] |  | > 40 µg/mL | > 40 µg/mL | 
43 | CCC#CCN1N=C(c2ncc(Cl)cc2Cl)CCC1=O [drawing 110] |  | 8 µg/mL (≈ 25.8 µM) | 3.47 µg/mL (≈ 11.2 µM) | 
44 | CCC#CCn1nc(-c2ncc(Cl)cc2Cl)ccc1=O [drawing 111] |  | 13.6 µg/mL (≈ 44.1 µM) | 4.42 µg/mL (≈ 14.3 µM) | 
45 | CC(C)(C)C#C/C=C/Cn1nc(-c2ccc(Cl)cn2)ccc1=O [drawing 112] |  | > 40 µg/mL | 8.11 µg/mL (≈ 24.7 µM) | 
46 | CCC#CCN1N=C(c2nc(Cl)c(Cl)cc2Cl)CCC1=O [drawing 113] |  |  | 5.75 µg/mL (≈ 16.7 µM) | EC50 [2]: 8.71 µg/mL (≈ 25.3 µM)
47 | CCC#CCn1nc(-c2ccc(Cl)c(F)n2)ccc1=O [drawing 114] |  | 0.048 µg/mL (≈ 0.165 µM) | 0.0236 µg/mL (≈ 0.0809 µM) | 
48 | CCC#CCn1nc(-c2ccc(Cl)cn2)ccc1=O [drawing 116] |  |  |  | EC50 (Candida albicans): 0.091 µg/mL (≈ 0.332 µM)
49 | CCCCCOCC#CCn1nc(-c2ccc(Cl)cn2)ccc1=O [drawing 117] |  |  |  | EC50 (Candida albicans; Candida albicans, 48 h): 0.176 µg/mL (≈ 0.509 µM)
50 | CCC#CCn1nc(-c2ccc(Cl)cn2)ccc1=O [drawing 118] |  |  |  | EC50 (Candida albicans): 0.210 µg/mL (≈ 0.767 µM)
